In paper PMC8870583, “EGCG Promotes FUS Condensate Formation in a Methylation-Dependent Manner” (Cells, 2022):

Experiments:
[1] = target: T1, FUS^RGG3PY (Homo sapiens, UniProt P35637); assay: 1H-15N HSQC NMR titration (CSP); format: binding; conditions: no RNA; EGCG 10-500 µM; 30 µM protein; pH 6.0, 150 mM NaCl, 25 °C; several sites, non-specific
T1 construct: RGG3-PY region, residues 454-526, unmethylated; His6-protein A tag cut by TEV; E. coli BL21(DE3) Star
T1 sequence (P35637 454-526): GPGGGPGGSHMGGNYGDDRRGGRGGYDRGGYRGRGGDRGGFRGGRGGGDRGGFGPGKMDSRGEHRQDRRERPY

[2] = target: FUS RGG3PY (UniProt P35637 454-526); assay: NMR 1H-15N HSQC titration; 30 uM protein, 0-7.5 uM RNA; unmethylated; CSPs lower than methylated at 4:1, line broadening; 50 mM sodium succinate pH 6.0, 150 mM NaCl, 2 mM TCEP, 0.04% NaN3, 10% D2O, 25 C; conditions: protein: recombinant; tags: His6-protein A tag removed by TEV

Row | Molecule | 1H-15N HSQC NMR titration (CSP) [1] | binding result [2]
1 | O=C(O[C@@H]1Cc2c(O)cc(O)cc2O[C@@H]1c1cc(O)c(O)c(O)c1)c1cc(O)c(O)c(O)c1 [EGCG] | EGCG can directly interact with the RGG3-PY region of FUS | 
2 | UGUGUGUGUGUGUGUGUGUGUGUG (ssRNA) [(UG)12 RNA] |  | binds
